From US8178535B2, “Substituted sulfonamide compounds having bradykinin 1 receptor activity and use thereof as medicaments” (Gruenenthal GmbH, priority 2008, dated 2012) come the findings set out here.

Assay [1] deals with T1, human B1R receptor (hB1R) (Homo sapiens, UniProt P46663).
T1 construct: host or cells: CHO K1 cells
T1 sequence (P46663 1-353): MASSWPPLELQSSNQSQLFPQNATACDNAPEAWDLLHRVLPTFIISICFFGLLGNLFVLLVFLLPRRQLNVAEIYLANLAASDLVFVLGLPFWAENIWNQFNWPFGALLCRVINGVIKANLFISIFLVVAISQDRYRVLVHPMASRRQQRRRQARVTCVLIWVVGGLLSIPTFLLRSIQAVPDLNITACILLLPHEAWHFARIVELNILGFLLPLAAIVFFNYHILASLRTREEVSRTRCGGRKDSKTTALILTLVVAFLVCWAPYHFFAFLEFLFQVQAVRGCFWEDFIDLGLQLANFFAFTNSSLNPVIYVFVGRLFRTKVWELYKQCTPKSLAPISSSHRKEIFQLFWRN
Description: FLIPR Ca2+ assay (Fluo-4) on CHO K1 cells stably transfected with the human B1R gene. The note with it: test substance 10 μM, agonist Lys-Des-Arg9-bradykinin 0.5 nM, % inhibition compared to the maximum achievable inhibition; for inhibition at 10 µM: CHO-K1. Format: cell-based. Here is the method:
(§1) The agonistic or antagonistic action of compounds can be quantified on the bradykinin 1 receptor (B1R) of humans and rats with ectopically expressing cell lines (CHO K1 cells) and with the aid of a Ca^2+-sensitive dye (Fluo-4) in the fluorescent imaging plate reader (FLIPR). The figure in percent activation refers to the Ca^2+ signal after addition of Lys-Des-Arg^9-bradykinin (0.5 nM) and Des-Arg^9-bradykinin (100 nM). Antagonists result in a suppression of the Ca^2+ inflow after the addition of the agonist. Percent inhibition values are given in comparison to the maximum achievable inhibition. The compounds according to the invention act, for example, on the B1R which is implicated in various disease states. This means that the compounds of the invention are useful as pharmaceutically active substances in medicaments for the treatment and/or inhibition of such disease states.
(§2) The agonistic or antagonistic action of substances can be determined on the bradykinin 1 receptor (B1R) of humans and rats by means of the following assay. According to this assay the Ca^2+ inflow through the channel is quantified by means of a Ca^2+-sensitive dye (Fluo-4 type, Molecular Probes Europe BV, Leiden, Netherlands), in a Fluorescent Imaging Plate Reader (FLIPR, Molecular Devices, Sunnyvale, USA).
(§3) Chinese hamster ovary cells (CHO K1 cells) are used, which are stably transfected with the human B1R gene (hB1R cells, Euroscreen s.a., Gosselies, Belgium), or with the B1R gene of rats (rB1R cells, Axxam, Milan, Italy). For functional investigations these cells are plated out on black 96-well plates with a clear floor (BD Biosciences, Heidelberg, Germany) in a density of 20,000/25,000 cells/well. The cells are incubated overnight with 10 vol. % FBS (foetal bovine serum, Gibco Invitrogen GmbH, Karlsruhe, Germany) at 37° C. and 5% CO2 in a culture medium (hB1R cells: Nutrient Mixture Ham's F12, Gibco Invitrogen GmbH, Karlsruhe, Germany; rB1R cells: D-MEM/F12, Gibco Invitrogen GmbH, Karlsruhe, Germany). The following day the cells are charged for 60 minutes at 37° C. with 2.13 μM Fluo-4 (Molecular Probes Europe BV, Leiden, Netherlands) in HBSS buffer (Hank's buffered saline solution, Gibco Invitrogen GmbH, Karlsruhe, Germany) together with […] (Sigma-Aldrich, Taufkirchen, Germany) and 10 mM HEPES (Sigma-Aldrich, Taufkirchen, Germany).
(§4) The plates are then washed twice with HBSS buffer and HBSS buffer is added which additionally contains 0.1% BSA (bovine serum albumin; Sigma-Aldrich, Taufkirchen, Germany), 5.6 mM glucose and 0.05% gelatin (Merck KGaA, Darmstadt, Germany). After further incubation for 20 minutes at room temperature the plates are used for the Ca^2+ measurement in the FLIPR. The Ca^2+-dependent fluorescence is measured both before and after the addition of substances (λex=488 nm, λem=540 nm). The quantification is carried out by measuring the highest fluorescence intensity (FC, fluorescence counts) over time.
(§5) The FLIPR protocol consists of two substance additions. First, test substances (10 μM) are pipetted onto the cells and the Ca^2+ inflow is compared with the control (hB1R: Lys-Des-Arg9-bradykinin 0.5 nM; rB1R: Des-Arg9-bradykinin 100 nM). This gives the result in percent activation referred to the Ca^2+ signal after addition of Lys-Des-Arg9-bradykinin (0.5 nM), bzw. Des-Arg9-bradykinin (100 nM). After 10 minutes' incubation 0.5 nM Lys-Des-Arg9-bradykinin (hB1R) and 100 nM Des-Arg^9-bradykinin (rB1R) are applied and the inflow of Ca^2+ is likewise determined. Antagonists lead to a suppression of the Ca^2+ inflow. The percent inhibition compared to the maximum achievable inhibition is calculated. The compounds show a good activity on both human and rat receptors.
(§6) The agonistic and antagonistic action of the compounds according to the invention on the bradykinin 1 receptor (B1R) of humans and rats were determined as described above. Antagonists lead to a suppression of the Ca^2+ inflow. […]

Assay [2] deals with T2, B1R receptor of rats (rB1R) (Rattus norvegicus, UniProt P97583).
T2 construct: host or cells: CHO K1 cells
T2 sequence (P97583 1-337): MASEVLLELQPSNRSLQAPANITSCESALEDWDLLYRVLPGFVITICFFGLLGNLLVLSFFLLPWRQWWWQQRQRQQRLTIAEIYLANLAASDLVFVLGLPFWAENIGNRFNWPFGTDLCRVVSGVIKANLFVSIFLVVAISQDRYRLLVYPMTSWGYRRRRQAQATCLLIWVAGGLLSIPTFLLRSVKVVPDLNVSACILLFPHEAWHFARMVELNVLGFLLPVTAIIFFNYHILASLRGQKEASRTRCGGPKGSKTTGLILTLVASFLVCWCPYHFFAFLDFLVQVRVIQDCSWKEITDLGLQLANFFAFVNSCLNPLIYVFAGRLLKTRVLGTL
Description: FLIPR Ca2+ assay (Fluo-4) on CHO K1 cells stably transfected with the B1R gene of rats. Format: cell-based. To be noted: test substance 10 μM, agonist Des-Arg9-bradykinin 100 nM, % inhibition compared to the maximum achievable inhibition; for inhibition at 10 µM: CHO-K1. Here is the method: as §1, §2, §3, §4, §5, §6

By inhibition is commonly meant the change of the read-out against control, counted positive when it falls. A high value points to a response far below the control.

Regarding `COc1cc(C)c(S(=O)(=O)N2CCCCC2COCC(=O)N2CCn3cccc3C2c2cccc(C(F)(F)F)c2)c(C)c1` (stereo not drawn) [(30), 2-((1-(4-methoxy-2,6-dimethylphenylsulfonyl)piperidin-2-yl)methoxy)-1-(1-(3-(trifluoromethyl)phenyl)-3,4-dihydropyrrolo[1,2-a]pyrazin-2(1H)-yl)ethanone], the figures for the inhibition at 10 µM in assay [1] and in assay [2] were 58% and 98%, respectively.

On to `COc1cccc(C2c3cccn3CCN2C(=O)COCC2CCCCN2S(=O)(=O)c2c(C)cc(OC)cc2C)c1` (stereo not drawn) [(31), 2-((1-(4-methoxy-2,6-dimethylphenylsulfonyl)piperidin-2-yl)methoxy)-1-(1-(3-methoxyphenyl)-3,4-dihydropyrrolo[1,2-a]pyrazin-2(1H)-yl)ethanone], for which the values for the inhibition at 10 µM in assay [1] and in assay [2] were 96% and 98%, respectively.

Take `COc1cc(C)c(S(=O)(=O)N2CCCCC2COCC(=O)N2CCn3cccc3C2c2ccc(C(F)(F)F)cc2F)c(C)c1` (stereo not drawn) [(32), 1-(1-(2-fluoro-4-(trifluoromethyl)phenyl)-3,4-dihydropyrrolo[1,2-a]pyrazin-2(1H)-yl)-2-((1-(4-methoxy-2,6-dimethylphenylsulfonyl)piperidin-2-yl)methoxy)ethanone]: the inhibition at 10 µM turned out to be 61% in assay [1] and 99% in assay [2].

Turning to `Cc1cc(C)c(S(=O)(=O)N2CCCCC2COCC(=O)N2CCn3cccc3C2C(C)(C)C)c(C)c1` (stereo not drawn) [(33), 1-(1-tert-butyl-3,4-dihydropyrrolo[1,2-a]pyrazin-2(1H)-yl)-2-((1-(mesitylsulfonyl)piperidin-2-yl)methoxy)ethanone], the inhibition at 10 µM in assay [1] came out at 98%; in assay [2], 100%.

Regarding `Cc1cc(C)c(S(=O)(=O)N2CCCCC2COCC(=O)N2CCn3cccc3C2C)c(C)c1` (stereo not drawn) [(34), 2-((1-(mesitylsulfonyl)piperidin-2-yl)methoxy)-1-(1-methyl-3,4-dehydro-pyrrolo[1,2-a]pyrazin-2(1H)-yl)ethanone], in assay [1], the “hB1R [10 μM] % Inhibition” value turned out to be 76%. Also, the “rB1R [10 μM] % Inhibition” value in assay [2] is on record as 99%.

Take `Cc1cc(C)c(S(=O)(=O)N2CCCCC2COCC(=O)N2CCn3cccc3C2c2cccnc2)c(C)c1` (stereo not drawn) [(35), 2-((1-(mesitylsulfonyl)piperidin-2-yl)methoxy)-1-(1-(pyridin-3-yl)-3,4-dihydropyrrolo[1,2-a]pyrazin-2(1H)-yl)ethanone]: the values for the inhibition at 10 µM in assay [1] and in assay [2] were 100% and 97%, respectively.

Take `Cc1cc(C)c(S(=O)(=O)N2CCCCC2COCC(=O)N2CCn3cccc3C2c2ccc(Cl)nc2)c(C)c1` (stereo not drawn) [(36), 1-(1-(6-chloropyridin-3-yl)-3,4-dihydropyrrolo[1,2-a]pyrazin-2(1H)-yl)-2-((1-(mesitylsulfonyl)piperidin-2-yl)methoxy)ethanone]: the inhibition at 10 µM in assay [1] and in assay [2] was 99% each time.

For the compound `Cc1cc(C)c(S(=O)(=O)N2CCCCC2COCC(=O)N2CCn3ccnc3C2)c(C)c1` (stereo not drawn) [(37), 1-(5,6-dihydroimidazo[1,2-a]pyrazin-7(8H)-yl)-2-((1-(mesitylsulfonyl)piperidin-2-yl)methoxy)ethanone], the inhibition at 10 µM in assay [1] amounted to 18%; in assay [2], 91%.

Regarding `COc1ccc(C2c3cccn3CCN2C(=O)COCC2CCCCN2S(=O)(=O)c2c(C)cc(C)cc2C)cc1` (stereo not drawn) [(38), 2-((1-(mesitylsulfonyl)piperidin-2-yl)methoxy)-1-(1-(4-methoxyphenyl)-3,4-dihydropyrrolo[1,2-a]pyrazin-2(1H)-yl)ethanone], the inhibition at 10 µM in assay [1] was determined as 90%; in assay [2], 99%.

For the compound `Cc1cc(C)c(S(=O)(=O)N2CCCCC2COCC(=O)N2CCn3cccc3C2c2ccccc2)c(C)c1` (stereo not drawn) [(39), 2-((1-(mesitylsulfonyl)piperidin-2-yl)methoxy)-1-(1-phenyl-3,4-dihydropyrrolo[1,2-a]pyrazin-2(1H)-yl)ethanone], the figures for the inhibition at 10 µM in assay [1] and in assay [2] were 77% and 99%, respectively.

As to `Cc1cc(C)c(S(=O)(=O)N2CCCCC2COCC(=O)N2CCn3cccc3C2c2ccc(F)c(F)c2)c(C)c1` (stereo not drawn) [(40), 1-(1-(3,4-difluorophenyl)-3,4-dihydropyrrolo[1,2-a]pyrazin-2(1H)-yl)-2-((1-(mesitylsulfonyl)piperidin-2-yl)methoxy)ethanone], the results for the inhibition at 10 µM in assay [1] and in assay [2] were 38% and 100%, respectively.

Regarding `Cc1cc(C)c(S(=O)(=O)N2CCCCC2COCC(=O)N2CCn3cccc3C2c2ccc(C)c(C)c2)c(C)c1` (stereo not drawn) [(41), 1-(1-(3,4-dimethylphenyl)-3,4-dihydropyrrolo[1,2-a]pyrazin-2(1H)-yl)-2-((1-(mesitylsulfonyl)piperidin-2-yl)methoxy)ethanone], the inhibition at 10 µM in assay [1] was 35%; in assay [2] it was 98%.

For the compound `Cc1cc(C)c(S(=O)(=O)N2CCCCC2COCC(=O)N2CCn3cccc3C2c2cccc(F)c2)c(C)c1` (stereo not drawn) [(42), 1-(1-(3-fluorophenyl)-3,4-dihydropyrrolo[1,2-a]pyrazin-2(1H)-yl)-2-((1-(mesitylsulfonyl)piperidin-2-yl)methoxy)ethanone], the inhibition at 10 µM in assay [1] was 73%; in assay [2], 99%.

In the case of `Cc1cc(C)c(S(=O)(=O)N2CCCCC2COCC(=O)N2CCn3cccc3C2c2cccs2)c(C)c1` (stereo not drawn) [(43), 2-((1-(mesitylsulfonyl)piperidin-2-yl)methoxy)-1-(1-(thiophen-2-yl)-3,4-dihydropyrrolo[1,2-a]pyrazin-2(1H)-yl)ethanone], the inhibition at 10 µM in assay [1] is 96%; in assay [2], 98%.

Take `Cc1cc(C)c(S(=O)(=O)N2CCCCC2COCC(=O)N2CCn3cccc3C2c2cccc(C(F)(F)F)c2)c(C)c1` (stereo not drawn) [(44), 2-((1-(mesitylsulfonyl)piperidin-2-yl)methoxy)-1-(1-(3-(trifluoromethyl)phenyl)-3,4-dihydropyrrolo[1,2-a]pyrazin-2(1H)-yl)ethanone]: the inhibition at 10 µM in assay [1] was 10%; in assay [2] it was 79%.
